Source: DBAASP
≈ marks a conversion by molar mass, not a printed value.

Columns and labels:
Experiment in all cases: ≥ marks a high value that may be exact or a test limit, other limits are often not marked, values filed in µg/mL are converted to µM
[1] = test system: Pseudomonas aeruginosa H103
[2] = test system: Staphylococcus epidermidis
[3] = test system: Staphylococcus aureus K147
[4] = test system: Staphylococcus aureus SAP 0017
Escherichia coli O111:B4 = test system: Escherichia coli O111:B4
Enterococcus faecalis = test system: Enterococcus faecalis
[5] = test system: Salmonella typhimurium C610
Bacillus subtilis = test system: Bacillus subtilis
[6] = test system: Bacillus subtilis ATCC 6633
[7] = test system: Escherichia coli DSM 1103
[8] = test system: Escherichia coli DH5alpha
[9] = test system: Staphylococcus aureus DSM 1104
[10] = test system: Kocuria rhizophila DSM 348
[11] = test system: Micrococcus luteus DSM 1790
[12] = test system: Aspergillus flavus PFCC 100
[13] = test system: Aspergillus niger ATCC 9029
[14] = test system: Candida glabrata ATCC 90030
Candida krusei DSM 70079 = test system: Candida krusei DSM 70079
[15] = test system: Aspergillus fumigatus Af293
[16] = test system: Candida albicans ATCC 10231
[17] = test system: Aspergillus fumigatus ATCC 1022
[18] = test system: Enterococcus faecalis ATCC 29212
[19] = test system: Cryptococcus neoformans ATCC 2517
[20] = test system: Bacillus subtilis ATCC 6051
[21] = test system: Escherichia coli ATCC 25922
[22] = test system: Staphylococcus aureus ATCC 25923
[23] = test system: Aspergillus niger ATCC 9142
[24] = test system: Pseudomonas aeruginosa ATCC 27853
[25] = test system: Saccharomyces cerevisiae PTCC 5052
[26] = test system: Trichophyton mentagrophytes ATCC 32510
[27] = test system: Aspergillus flavus ATCC 24109
[28] = test system: Microsporum canis PTCC 5069
[29] = test system: Candida krusei ATCC 28870
[30] = test system: Enterobacter cloacae ATCC 23355
[31] = test system: Staphylococcus saprophyticus
[32] = test system: Staphylococcus aureus ATCC 6538
[33] = test system: Escherichia coli CCT 1371
[34] = test system: Bacillus subtilis CCT 2471
[35] = test system: Bacillus subtilis KCTC 3068
[36] = test system: Escherichia coli KCTC 1682
[37] = test system: Staphylococcus aureus CCARM 3095
[38] = test system: Pseudomonas aeruginosa KCTC 1637
[39] = test system: Staphylococcus aureus KCTC 1621
[40] = test system: Salmonella typhimurium KCTC 1926
[41] = test system: Staphylococcus aureus CCARM 3090
[42] = test system: Staphylococcus epidermidis KCTC 1917
[43] = test system: Pseudomonas aeruginosa CCARM 2095
[44] = test system: Staphylococcus aureus CCARM 3089
[45] = test system: Enterococcus faecium ATCC 51559

## CC[C@H](C)[C@H](NC(=O)[C@H](C)NC(=O)[C@@H]1CCCN1C(=O)CNC(=O)[C@H](C)NC(=O)[C@@H](NC(=O)[C@H](CCCCN)NC(=O)[C@H](CC(C)C)NC(=O)CNC(=O)[C@H](CO)NC(=O)[C@H](CC(C)C)NC(=O)[C@@H](NC(=O)[C@H](CCCN=C(N)N)NC(=O)[C@H](CCCN=C(N)N)NC(=O)[C@H](Cc1c[nH]c2ccccc12)NC(=O)[C@H](Cc1c[nH]c2ccccc12)NC(=O)[C@H](CCCCN)NC(=O)[C@@H](N)CCCCN)C(C)C)[C@@H](C)O)C(=O)N[C@@H](CCC(N)=O)C(=O)N[C@@H](CO)C(=O)N[C@H](C(=O)N[C@@H](CC(C)C)C(=O)N[C@@H](CC(N)=O)C(=O)N[C@@H](CCCCN)C(=O)O)C(C)C [KKWWRRVLSGLKTAGPAIQSVLNK]
[1]
  MIC: 23.4 µM (≈ 64 µg/mL)
[2]
  MIC: ≥ 46.8 µM
[3]
  MIC: ≥ 46.8 µM
[4]
  MIC: ≥ 46.8 µM
Escherichia coli O111:B4
  MIC: 5.85 µM (≈ 16 µg/mL)
Enterococcus faecalis
  MIC: ≥ 46.8 µM
[5]
  MIC: 5.85 µM (≈ 16 µg/mL)
Bacillus subtilis
  MIC: ≥ 46.8 µM

## CC(C)C[C@H](NC(=O)[C@H](C)NC(=O)[C@H](CCCCN)NC(=O)[C@H](CC(C)C)NC(=O)[C@H](C)NC(=O)[C@H](CC(C)C)NC(=O)[C@H](CCCCN)NC(=O)[C@H](CC(C)C)NC(=O)[C@H](C)NC(=O)[C@H](CC(C)C)NC(=O)[C@@H](N)CCCCN)C(=O)N[C@@H](CCCCN)C(=O)N[C@@H](C)C(=O)N[C@@H](C)C(=O)N[C@@H](CC(C)C)C(=O)N[C@@H](CCCCN)C(=O)N[C@@H](CC(C)C)C(=O)N[C@@H](C)C(=O)O [KLALKLALKALKAALKLA]
[6]
  MIC: ≥ 68.2 µM
[7]
  MIC: ≥ 68.2 µM
[8]
  MIC: ≥ 68.2 µM
[9]
  MIC: ≥ 68.2 µM
[10]
  MIC: ≥ 68.2 µM
[11]
  MIC: ≥ 68.2 µM

## CC[C@H](C)[C@H](NC(=O)[C@@H](NC(=O)[C@H](CCCCN)NC(=O)[C@H](CC(=O)O)NC(=O)[C@H](C)NC(=O)[C@H](CCC(N)=O)NC(=O)[C@H](CCCN=C(N)N)NC(=O)[C@@H](NC(=O)[C@H](CO)NC(=O)CNC(=O)[C@H](CCCN=C(N)N)NC(=O)[C@H](CCC(=O)O)NC(=O)[C@H](Cc1c[nH]c2ccccc12)NC(=O)[C@@H](NC(=O)[C@H](CS)NC(=O)[C@H](CC(C)C)NC(=O)[C@H](CCC(=O)O)NC(=O)[C@H](CCC(N)=O)NC(=O)[C@H](CCCCN)NC(=O)[C@H](CO)NC(=O)[C@@H](NC(=O)[C@H](CCCN=C(N)N)NC(=O)CN)[C@@H](C)O)[C@@H](C)O)C(C)C)[C@@H](C)O)C(=O)N[C@@H](C)C(=O)NCC(=O)O [GRTSKQELCTWERGSVRQADKTIAG]
[12]
  MIC: 23.4 µM (≈ 65 µg/mL)
[13]
  MIC: 22.5 µM (≈ 62.5 µg/mL)
[14]
  MIC: 19.8 µM (≈ 55 µg/mL)
Candida krusei DSM 70079
  MIC: 20.7 µM (≈ 57.5 µg/mL)
[15]
  MIC: 20.7 µM (≈ 57.5 µg/mL)
[16]
  MIC: 21.6 µM (≈ 60 µg/mL)

## CC[C@H](C)[C@H](NC(=O)[C@H](CCCCN)NC(=O)[C@H](Cc1ccccc1)NC(=O)[C@@H](N)Cc1c[nH]c2ccccc12)C(=O)N[C@H](C(=O)N[C@@H](CCCCN)C(=O)N[C@@H](CCCCN)C(=O)O)[C@@H](C)CC [WFKIIKK]
[17]
  MIC: 7.59 µM (≈ 7.3 µg/mL)
[18]
  MIC: > 1040 µM
[19]
  MIC: ≥ 1040 µM
[20]
  MIC: ≥ 1040 µM
[14]
  MIC: ≥ 130 µM
[21]
  MIC: > 1040 µM
[22]
  MIC: > 1040 µM
[23]
  MIC: ≥ 130 µM
[24]
  MIC: > 1040 µM
[25]
  MIC: 16.6 µM (≈ 16 µg/mL)
[26]
  MIC: ≥ 65 µM
[27]
  MIC: ≥ 1040 µM
[28]
  MIC: ≥ 130 µM
[16]
  MIC: 16.6 µM (≈ 16 µg/mL)
[29]
  MIC: ≥ 33.3 µM

## CC[C@H](C)[C@H](NC(=O)CNC(=O)[C@H](CCSC)NC(=O)[C@H](CC(C)C)NC(=O)[C@H](CCCCN)NC(=O)[C@@H](N)CC(C)C)C(=O)N[C@H](C(=O)N[C@@H](CCCCN)C(=O)N[C@@H](CCCCN)C(=O)N[C@H](C(=O)N[C@@H](CC(C)C)C(=O)NCC(=O)N[C@@H](C)C(=O)N[C@@H](CC(C)C)C(N)=O)C(C)C)C(C)C [LKLMGIVKKVLGAL]
[30]
  MIC: 17 µM (≈ 25.2 µg/mL)
[21]
  MIC: 7 µM (≈ 10.4 µg/mL)
[22]
  MIC: 7 µM (≈ 10.4 µg/mL)
[31]
  MIC: 3 µM (≈ 4.45 µg/mL)
[2]
  MIC: ≥ 34 µM
[32]
  MIC: 34 µM (≈ 50.4 µg/mL)
[33]
  MIC: 17 µM (≈ 25.2 µg/mL)
[34]
  MIC: ≥ 68 µM

## CC[C@H](C)[C@H](NC(=O)[C@@H](NC(=O)[C@H](Cc1cnc[nH]1)NC(=O)[C@H](CCCN=C(N)N)NC(=O)[C@H](C)NC(=O)[C@H](CCCN=C(N)N)NC(=O)[C@H](CC(C)C)NC(=O)[C@H](CO)NC(=O)[C@H](C)NC(=O)[C@H](CO)NC(=O)[C@H](CC(C)C)NC(=O)[C@@H](N)CC(N)=O)[C@@H](C)O)C(=O)N1CCC[C@H]1C(=O)N[C@@H](CCC(N)=O)C(=O)N[C@@H](CO)C(=O)N[C@@H](CCCN=C(N)N)C(=O)N[C@@H](CCCCN)C(=O)N[C@@H](Cc1ccccc1)C(=O)NCC(=O)N[C@@H](CCCN=C(N)N)C(=O)N[C@@H](CCCN=C(N)N)C(=O)O [NLSASLRARHTIPQSRKFGRR]
[35]
  MIC: 12.5 µM (≈ 30.6 µg/mL)
[36]
  MIC: 6.3 µM (≈ 15.4 µg/mL)
[37]
  MIC: 25 µM (≈ 61.3 µg/mL)
[38]
  MIC: 6.3 µM (≈ 15.4 µg/mL)
[39]
  MIC: 12.5 µM (≈ 30.6 µg/mL)
[40]
  MIC: 6.3 µM (≈ 15.4 µg/mL)
[41]
  MIC: ≥ 50 µM
[42]
  MIC: 6.3 µM (≈ 15.4 µg/mL)
[43]
  MIC: 12.5 µM (≈ 30.6 µg/mL)
[44]
  MIC: 25 µM (≈ 61.3 µg/mL)
[45]
  MIC: ≥ 50 µM
